Data reported in ChEMBL document CHEMBL4619809, “Chemically Induced Degradation of WEE1 Kinase for Difficult to Treat Diseases” (ACS Med Chem Lett, 2020).

Molecular target: Protein cereblon/Wee1-like protein kinase (Homo sapiens) (UniProt P30291+Q96SW2)
Assay: Protac activity at CRBN/WEE1 in human MOLT4 cells assessed as induction of degradation of WEE1 at 1 uM incubated for 6 hrs by immunoblot analysis relative to control
Format: cell-based
Details: MOLT-4

Chain of Protein cereblon/Wee1-like protein kinase (Homo sapiens) (P30291 whole entry, looked up): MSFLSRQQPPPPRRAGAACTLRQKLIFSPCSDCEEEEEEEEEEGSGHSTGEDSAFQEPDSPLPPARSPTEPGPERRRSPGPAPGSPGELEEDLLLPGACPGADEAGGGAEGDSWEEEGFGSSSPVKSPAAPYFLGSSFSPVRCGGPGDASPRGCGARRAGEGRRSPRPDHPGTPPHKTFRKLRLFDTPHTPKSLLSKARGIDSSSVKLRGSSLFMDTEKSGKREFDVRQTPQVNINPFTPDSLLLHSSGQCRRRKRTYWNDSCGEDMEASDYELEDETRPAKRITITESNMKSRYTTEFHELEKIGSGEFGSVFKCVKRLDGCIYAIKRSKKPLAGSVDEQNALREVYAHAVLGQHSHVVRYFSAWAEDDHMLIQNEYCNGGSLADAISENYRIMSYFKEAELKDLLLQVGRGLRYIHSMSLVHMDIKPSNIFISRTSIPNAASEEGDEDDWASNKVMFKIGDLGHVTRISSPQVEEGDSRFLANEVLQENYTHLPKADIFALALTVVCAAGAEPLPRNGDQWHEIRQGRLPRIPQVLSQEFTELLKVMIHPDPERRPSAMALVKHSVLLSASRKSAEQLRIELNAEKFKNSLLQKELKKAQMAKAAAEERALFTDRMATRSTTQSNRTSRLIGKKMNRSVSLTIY
Chain of Protein cereblon/Wee1-like protein kinase (Homo sapiens) (Q96SW2 whole entry, looked up): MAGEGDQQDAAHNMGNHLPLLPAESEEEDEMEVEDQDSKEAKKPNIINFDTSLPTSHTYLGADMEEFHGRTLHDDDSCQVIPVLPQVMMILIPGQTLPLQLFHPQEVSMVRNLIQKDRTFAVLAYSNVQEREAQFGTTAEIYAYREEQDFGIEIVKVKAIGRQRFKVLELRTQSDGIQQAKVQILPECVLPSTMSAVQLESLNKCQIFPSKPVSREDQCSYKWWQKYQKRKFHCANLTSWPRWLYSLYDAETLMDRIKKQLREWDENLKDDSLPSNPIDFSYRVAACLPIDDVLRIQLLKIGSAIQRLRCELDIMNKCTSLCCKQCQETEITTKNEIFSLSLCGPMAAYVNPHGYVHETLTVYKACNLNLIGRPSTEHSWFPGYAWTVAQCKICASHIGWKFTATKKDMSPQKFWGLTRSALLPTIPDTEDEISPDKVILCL

Compound	Activity
C=CCn1c(=O)c2cnc(Nc3ccc(N4CCN(CCCNc5cccc6c5C(=O)N(C5CCC(=O)NC5=O)C6=O)CC4)cc3)nc2n1-c1cccc(C(F)(F)F)n1 (stereo not given)	> 50%
C=CCn1c(=O)c2cnc(Nc3ccc(N4CCN(C(=O)CCOCCNc5cccc6c5C(=O)N(C5CCC(=O)NC5=O)C6=O)CC4)cc3)nc2n1-c1cccc(C(C)(C)O)n1 (stereo not given)	> 50%
C=CCn1c(=O)c2cnc(Nc3ccc(N4CCN(CCCNC(=O)CCOCCOCCNc5cccc6c5C(=O)N(C5CCC(=O)NC5=O)C6=O)CC4)cc3)nc2n1-c1cccc(C(C)(C)O)n1 (stereo not given)	> 50%
C=CCn1c(=O)c2cnc(Nc3ccc(N4CCN(CCCNC(=O)CCOCCOCCOCCOCCNc5cccc6c5C(=O)N(C5CCC(=O)NC5=O)C6=O)CC4)cc3)nc2n1-c1cccc(C(C)(C)O)n1 (stereo not given)	> 50%

Next, values leading:

Activity	Compound
> 50%	C=CCn1c(=O)c2cnc(Nc3ccc(N(C)CCCCNc4cccc5c4C(=O)N(C4CCC(=O)NC4=O)C5=O)cc3)nc2n1-c1cccc(C(C)(C)O)n1 (stereo not given)
> 50%	C=CCn1c(=O)c2cnc(Nc3ccc(N4CCN(CCCNc5cccc6c5C(=O)N(C5CCC(=O)NC5=O)C6=O)CC4)cc3)nc2n1-c1cccc(C(C)(C)O)n1 (stereo not given)
> 50%	C=CCn1c(=O)c2cnc(Nc3ccc(N4CCN(CCCNc5cccc6c5C(=O)N(C5CCC(=O)NC5=O)C6=O)CC4)cc3)nc2n1-c1cccc(OC)n1 (stereo not given)
> 50%	C=CCn1c(=O)c2cnc(Nc3ccc(N4CCN(C(=O)CCOCCOCCNc5cccc6c5C(=O)N(C5CCC(=O)NC5=O)C6=O)CC4)cc3)nc2n1-c1cccc(C(C)(C)O)n1 (stereo not given)
25 to 50%	C=CCn1c(=O)c2cnc(Nc3ccc(N4CCN(C(=O)CCOCCOCCNc5cccc6c5C(=O)N(C5CCC(=O)NC5=O)C6)CC4)cc3)nc2n1-c1cccc(C(C)(C)O)n1 (stereo not given)
> 50%	C=CCn1c(=O)c2cnc(Nc3ccc(N4CCN(C(=O)CCOCCOCCOCCN5CCN(Cc6ccc(COc7cccc8c7CN([C@H]7CCC(=O)NC7=O)C8=O)cc6)CC5)CC4)cc3)nc2n1-c1cccc(C(C)(C)O)n1
